According to ChEMBL document CHEMBL1122324, “New antihypertensive cannabinoids” (1983):

Legend:
Settings in all cases: route oral
[1] = test system: Rattus norvegicus; test: percentage decrease in heart rate after 24 hr at a dose of 30 mg/kg administered perorally in rats.; type: functional
[2] = test system: Rattus norvegicus; test: percentage decrease in heart rate after 4 hr at a dose of 100 mg/kg administered perorally in rats; type: functional
[3] = test system: Rattus norvegicus; test: percentage decrease in heart rate after 4 hr at a dose of 10 mg/kg administered perorally in rats.; type: functional
[4] = test system: Rattus norvegicus; test: percentage decrease in heart rate after 4 hr at a dose of 30 mg/kg administered perorally in rats.; type: functional
[5] = test system: Rattus norvegicus; test: percentage decrease in heart rate after 6 hr at a dose of 10 mg/kg administered perorally in rats.; type: functional
[6] = test system: Rattus norvegicus; test: percentage decrease in heart rate after 6 hr at a dose of 30 mg/kg administered perorally in rats.; type: functional
[7] = test system: Rattus norvegicus; test: percentage decrease in heart rate after 1 hr at a dose of 10 mg/kg administered perorally in rats.; type: functional
[8] = test system: Rattus norvegicus; test: percentage decrease in heart rate after 1 hr at a dose of 30 mg/kg administered perorally in rats.; type: functional
[9] = test system: Rattus norvegicus; test: percentage decrease in heart rate after 24 hr at a dose of 10 mg/kg administered perorally in rats.; type: functional
[10] = test system: Rattus norvegicus; test: Percentage decrease in systolic blood pressure after 6 hr at 30 mg/kg administered perorally in rats; type: functional, Artery
[11] = test system: Rattus norvegicus; test: Percentage decrease in systolic blood pressure after 1 hr at 30 mg/kg administered perorally in rats; type: functional, Artery
[12] = test system: Rattus norvegicus; test: Percentage decrease in systolic blood pressure after 1 hr at 10 mg/kg administered perorally in rats; type: functional, Artery
[13] = test system: Rattus norvegicus; test: Percentage decrease in systolic blood pressure after 24 hr at 10 mg/kg administered perorally in rats; type: functional, Artery
[14] = test system: Rattus norvegicus; test: Percentage decrease in systolic blood pressure after 4 hr at 10 mg/kg administered perorally in rats; type: functional, Artery
[15] = test system: Rattus norvegicus; test: Percentage decrease in systolic blood pressure after 24 hr at 30 mg/kg administered perorally in rats; type: functional, Artery
[16] = test system: Rattus norvegicus; test: Percentage decrease in systolic blood pressure after 4 hr at 30 mg/kg administered perorally in rats; type: functional, Artery
[17] = test system: Rattus norvegicus; test: Percentage decrease in systolic blood pressure after 6 hr at 10 mg/kg administered perorally in rats; type: functional, Artery
[18] = test system: Rattus norvegicus; test: Percentage decrease in systolic blood pressure after 4 hr at 100 mg/kg administered perorally in rats; type: functional, Artery
[19] = test system: Rattus norvegicus; test: percentage decrease in heart rate after 24 hr at a dose of 30 mg/kg administered perorally in rats; type: functional
[20] = test system: Rattus norvegicus; test: percentage decrease in heart rate after 6 hr at a dose of 30 mg/kg administered perorally in rats; type: functional
[21] = test system: Rattus norvegicus; test: percentage decrease in heart rate after 1 hr at a dose of 30 mg/kg administered perorally in rats; type: functional
[22] = test system: Rattus norvegicus; test: percentage decrease in heart rate after 4 hr at a dose of 30 mg/kg administered perorally in rats; type: functional
[23] = test system: Rattus norvegicus; test: Percentage decrease in systolic blood pressure (heart rate) after 4 hr at 100 mg/kg administered perorally in rats; type: functional, Artery
[24] = test system: Rattus norvegicus; test: Percentage decrease in systolic blood pressure (heart rate) after 4 hr at 30 mg/kg administered perorally in rats; type: functional, Artery
[25] = test system: Rattus norvegicus; test: percentage decrease in heart rate after 24 hr at a dose of 3 mg/kg administered perorally in rats; type: functional
[26] = test system: Rattus norvegicus; test: percentage decrease in heart rate after 4 hr at a dose of 10 mg/kg administered perorally in rats; type: functional
[27] = test system: Rattus norvegicus; test: percentage decrease in heart rate after 4 hr at a dose of 3 mg/kg administered perorally in rats; type: functional
[28] = test system: Rattus norvegicus; test: percentage decrease in heart rate after 6 hr at a dose of 10 mg/kg administered perorally in rats; type: functional
[29] = test system: Rattus norvegicus; test: percentage decrease in heart rate after 6 hr at a dose of 3 mg/kg administered perorally in rats; type: functional
[30] = test system: Rattus norvegicus; test: percentage decrease in heart rate after 1 hr at a dose of 10 mg/kg administered perorally in rats; type: functional
[31] = test system: Rattus norvegicus; test: percentage decrease in heart rate after 1 hr at a dose of 3 mg/kg administered perorally in rats; type: functional
[32] = test system: Rattus norvegicus; test: percentage decrease in heart rate after 24 hr at a dose of 10 mg/kg administered perorally in rats; type: functional
[33] = test system: Rattus norvegicus; test: Percentage decrease in systolic blood pressure after 6 hr at 3 mg/kg administered perorally in rats; type: functional, Artery
[34] = test system: Rattus norvegicus; test: Percentage decrease in systolic blood pressure after 1 hr at 3 mg/kg administered perorally in rats; type: functional, Artery
[35] = test system: Rattus norvegicus; test: Percentage decrease in systolic blood pressure after 24 hr at 3 mg/kg administered perorally in rats; type: functional, Artery
[36] = test system: Rattus norvegicus; test: Percentage decrease in systolic blood pressure after 4 hr at 3 mg/kg administered perorally in rats; type: functional, Artery

Structure (SMILES): CCCCCC(C)C(C)c1cc(O)c2c(c1)OC(C)(C)C1=C2CN(C(=O)CN2CCOCC2)CC1 (configuration not stated)
- Heart rate [1]: 0%
- Heart rate [2]: 37%
- Heart rate [3]: 7%
- Heart rate [4]: 16%
- Heart rate [5]: 11%
- Heart rate [6]: 20%
- Heart rate [7]: -21%
- Heart rate [8]: -2%
- Heart rate [9]: 8%
- Decrease in Systolic blood pressure [10]: 27%
- Decrease in Systolic blood pressure [11]: 10%
- Decrease in Systolic blood pressure [12]: 4%
- Decrease in Systolic blood pressure [13]: 2%
- Decrease in Systolic blood pressure [14]: 8%
- Decrease in Systolic blood pressure [15]: 10%
- Decrease in Systolic blood pressure [16]: 18%
- Decrease in Systolic blood pressure [17]: 3%
- Decrease in Systolic blood pressure [18]: 40%

Structure (SMILES): CCCCCC(C)C(C)c1cc(O)c2c(c1)OC(C)(C)C1=C2CN(C(=O)CN)CC1 (configuration not stated)
- Heart rate [19]: 10%
- Heart rate [20]: 13%
- Heart rate [21]: 9%
- Decrease in Systolic blood pressure [10]: 8%
- Decrease in Systolic blood pressure [11]: 12%
- Decrease in Systolic blood pressure [15]: 2%
- Decrease in Systolic blood pressure [16]: 10%
- Heart rate [22]: -5%

Structure (SMILES): CCCCCC(C)C(C)c1cc(O)c2c(c1)OC(C)(C)C1CCN(C(=O)CO)CC21 (configuration not stated)
- Heart rate [2]: 2%
- Decrease in Systolic blood pressure [18]: 0%

Structure (SMILES): CC(CCCc1ccc(F)cc1)c1cc(O)c2c(c1)OC(C)(C)C1=C2CN(C(=O)CO)CC1 (configuration not stated)
- Heart rate [2]: 19%
- Decrease in Systolic blood pressure [23]: 8%
- Decrease in Systolic blood pressure [24]: 10%
- Heart rate [22]: 30%

Structure (SMILES): CCCCCC(C)C(C)c1cc(O)c2c(c1)OC(C)(C)C1=C2CN(C(=O)CCO)CC1 (configuration not stated)
- Heart rate [2]: -1%
- Decrease in Systolic blood pressure [18]: 6%

Structure (SMILES): CC(CCCc1ccc(F)cc1)c1cc(O)c2c(c1)OC(C)(C)C1=C2CN(C(=O)CCCO)CC1 (configuration not stated)
- Heart rate [19]: 15%
- Heart rate [25]: -24%
- Heart rate [2]: 20%
- Heart rate [26]: 18%
- Heart rate [27]: 0%
- Heart rate [28]: 16%
- Heart rate [20]: 9%
- Heart rate [29]: 5%
- Heart rate [30]: 3%
- Heart rate [21]: 2%
- Heart rate [31]: -17%
- Heart rate [32]: 6%
- Decrease in Systolic blood pressure [33]: 9%
- Decrease in Systolic blood pressure [10]: 12%
- Decrease in Systolic blood pressure [11]: 11%
- Decrease in Systolic blood pressure [12]: 11%
- Decrease in Systolic blood pressure [34]: -6%
- Decrease in Systolic blood pressure [13]: 17%
- Decrease in Systolic blood pressure [35]: -8%
- Decrease in Systolic blood pressure [14]: 28%
- Decrease in Systolic blood pressure [15]: 22%
- Decrease in Systolic blood pressure [16]: 26%
- Decrease in Systolic blood pressure [17]: 19%
- Decrease in Systolic blood pressure [36]: 5%
- Decrease in Systolic blood pressure [18]: 32%
- Heart rate [22]: 23%

Structure (SMILES): CCCCCC(C)C(C)c1cc(O)c2c(c1)OC(C)(C)C1CCN(C(=O)CN)C=C21 (configuration not stated)
- Heart rate [2]: 7%
- Decrease in Systolic blood pressure [18]: 12%
